# Experimental data from patent US20200384072A1, “THERAPY OF IONIZING RADIATION-INDUCED DISORDERS” (SCK-CEN, priority 2019, published 2020).
# Assays:
# [1] = tested on: primary brain microvascular endothelial cells (pBMECs); experiment: γ-H2AX counts after local 3×3 mm X-ray irradiation (irradiated and bystander zones), pBMECs; type: cell-based, mouse; conditions: 1 Gy, 3 h post-irradiation
# Protocol: Cortices, from 10-12 week old mice, were isolated by removing cerebellum, striatum, optic nerves, brain white matter, outer vessels and meninges. After homogenization with a Dounce homogenizer in WBB (Washing Buffer B: HMS, 10 mM Hepes, 0.35 g/L NaHCO3, 0.1% BSA), the homogenate was mixed with 30% dextran in WBB and centrifuged at 3000×g for 25 min at 4° C. The pellet containing the vascular component was then resuspended in WBB and filtered through a 60 μm NY60 Nylon Net Filter (Millipore, Darmstadt, Germany). Following centrifugation at 1000×g for 7 min at room temperature, the pellet was digested in collagenase/dispase supplement with DNase I (Roche Diagnostics, Vilvoorde, Belgium) and TLCK (Tosyl, Lysin chloromethyl ketone, sigma-aldrich) for 33 min at 37° C. in a shaking water bath. The digested capillary suspension was then seeded after multiple washing steps on wells coated with matrigel or glass coated with Corning Cell-Tak (VWR, Leuven, Belgium). For the isolation of intact capillaries the protocol was aborted just before the digestion step.
# (§1) A defined area of the cell culture dishes were exposed to X-rays (1Gy or 20 Gy) by using a small animal radiation research platform (SARRP, Xstrahl, 220 kV, 13 mA), making use of a 3×3 mm collimator. Whole dish irradiation was done using a 10×10 cm broad-beam collimator, while localized Irradiation was performed with a 3×3 mm collimator. A Gafchromic RTQA2 film, with a sensitivity of 0.02 Gy, was placed underneath the cell dishes in order to delineate the irradiated zone.
# (§2) Cells were fixed for 25 min with 4% formaldehyde (VWR) and blocked for 30 min with blocking buffer (5% normal goat serum, 1% bovine serum albumin (BSA), 0.2% Triton X-100 in PBS D+). Overnight incubation with primary antibody (1/500 anti-γ-H2AX in dilution buffer, 1/10 blocking buffer in PBS D+) was followed by a 1 h incubation with 1/400 XX-biotin-goat-anti-mouse antibody in dilution buffer, followed by a 1 h incubation with 1/400 streptavidin-alexa488 in PBS D+. Nuclei were stained with 1 μg/mL DAPI in PBS D+ for 10 min and cells were kept in PBS D+ supplemented with NaN3 at 4° C. All steps except the overnight incubation which was carried out at 4° C., were carried out at room temperature and cell cultures were rinsed thoroughly with PBS D+ between all incubation steps. Imaging was performed with an automated BD Pathway 435 imaging system (10× objective, 10×10 montage resulting in an overall image size of 8.5×6.5 mm). We then quantified the number of γ-H2AX-foci positive nuclei in the directly irradiated and bystander areas and expressed the count as a percentage relative to the number of nuclei and subtracted the percentage of background γ-H2AX signal in non-irradiated paired control cultures for each experiment. For counting γ-H2AX foci, images were thresholded to remove background pixel noise below the foci level. Where applicable, results were normalized against vehicle (bar charts with a 100% vehicle bar without statistical variability or a horizontal line).
# RBE4 cells [2] = experiment: Cytosolic Ca2+ imaging after medium transfer from irradiated to recipient RBE4 cells; type: cell-based, rat
# Protocol: Cells were seeded on glass coverslips (18 mm 0) coated with 3.5 μg/cm^2 Corning cell-tak (VWR, Leuven, Belgium) and ester loaded for 45 min with 10 μM Fluo-3-AM in HBSS-HEPES supplemented with 1 mM of probenecid and 0.01% of pluronic F127 at room temperature followed by de-esterification over 15 min. Imaging was performed using an inverted fluorescence microscope equipped with a ×40 oil immersion objective and an EM-CCD camera (QuantEM™ 512SC CCD camera, Photometrics, Tucson, Ariz.). For direct Ca^2+ measurements the loaded cells were irradiated and transferred to the microscopy stage. For medium transfer, the loaded cells were superfused for 1 min with HBSS-Hepes (1 mM), followed by 4 min with HBSS-Hepes conditioned by irradiated cultures. Fluorescence intensity changes in the cells were analyzed with custom-developed FluoFrames software (L. Leybaert, Ghent, Belgium). Ca^2+ changes were quantified as the area under the curve (AUC) of the Ca^2+ traces.
# TIME cells = experiment: Scrape loading and dye transfer (SLDT), gap junctional coupling after irradiation, TIME cells; type: cell-based, human; conditions: Carbenoxolone 50 μM, single 0.1 or 5 Gy, 6 h and 72 h p.i.
# Protocol: (§3) The scrape loading and dye transfer assay (SLDT) was used to assess gap junctional function after IR exposure. TICAE and TIME cells were seeded in a 24-well plate at a density of 1×10^5 cells/well in four to six biological replicates. Three days later, cells reached 100% confluence and the medium was refreshed before irradiation with 1 ml/well for single irradiation experiment and 1.5 ml for fractionated irradiation experiment. At different time points after irradiation (6 and 72 h post single irradiation, or 72 h post fractionated irradiation) the cells were washed 3 times with a scrape loading and dye transfer (SLDT) buffer (137 mM NaCl, 5.36 mM KCl, 0.81 mM MgCl2, 5.55 mM […], 25 mM HEPES, pH 7.4). Then, the cells were incubated with a SLDT solution composed of SLDT buffer and 400 μM 6-carboxyfluorescein (6-CF, 0.376 kDa) (Sigma-Aldrich Co. LCC, Diegem, Belgium) for one minute. A vertical scratch was made in the middle of each well, using a 20G needle (Becton Dickinson, Erembodegem, Belgium). After another one minute incubation, the cells were washed 6 times with HMS supplemented with 25 mM HEPES (Sigma-Aldrich Co. LCC, Diegem, Belgium). […] The relative area of 6-CF transfer was calculated using FIJI software. By analyzing the area of the dye diffusion from the first line of cells to adjacent cells, the gap junctional coupling was determined.
# TICAE cells = experiment: Scrape loading and dye transfer (SLDT), gap junctional coupling after irradiation, TICAE cells; type: cell-based, human; conditions: Carbenoxolone 50 μM, single 0.1 or 5 Gy, 6 h and 72 h p.i.
# Protocol: as §3
# RBE4 cells [3] = experiment: Irradiation-induced ATP release, RBE4 cells; type: cell-based, rat; conditions: broad-beam 1 Gy, 5 min post-irradiation, BAPTA-AM 10 μM, NALC 1 mM, c-PTIO 100 μM
# Protocol: ATP was measured using a luciferin-luciferase assay kit (Sigma-Aldrich) in combination with a luminometer plate reader (Victor3 1420 multi label counter; Perkin Elmer, Zaventem, Belgium).
# Extracellular ATP measurements were initially carried out at different time-points post-irradiation, the effect of blockers on ATP release was tested at the 5 min post-irradiation time-point (time of maximum ATP release).
# RBE4 cells [4] = experiment: γ-H2AX counts after local 3×3 mm X-ray irradiation (irradiated and bystander zones), RBE4 cells; type: cell-based, rat; conditions: 1 Gy, 3 h post-irradiation, Cbx 50 μM, Gap26 161 μM, TAT-Gap19 200 μM, Xestospongin C 5 μM
# Protocol: as §1, §2
smiles,measurement,setting,value
"CC1(C)[C@@H](OC(=O)CCC(=O)O)CC[C@]2(C)[C@H]3C(=O)C=C4[C@@H]5C[C@@](C)(C(=O)O)CC[C@]5(C)CC[C@@]4(C)[C@]3(C)CC[C@@H]12 [Carbenoxolone, carbenoxolone]",γ-H2AX counts in the bystander zone (normalized to vehicle),[1],significant decrease
same,γ-H2AX counts in the irradiated area (normalized to vehicle),[1],significant decrease
same,AUC of Ca2+ transients in recipient bystander cells,"RBE4 cells [2]; inhibitor added to the irradiated culture 30 min before irradiation, NALC 1 mM",reduced the area under the curve (AUC)
same,[Ca2+]i responses in recipient cells,"RBE4 cells [2]; inhibitor added to the recipient cells, PPADS 50 μM",inhibited the [Ca^2]i responses
same,6-CF dye spread (gap junctional dye coupling),TIME cells,inhibited the dye spread in all cases
same,6-CF dye spread (gap junctional dye coupling),TICAE cells,inhibited the dye spread in all cases
same,irradiation-induced ATP release,RBE4 cells [3],inhibited
same,γ-H2AX counts in the bystander zone (normalized to vehicle),RBE4 cells [4],significantly inhibited
same,γ-H2AX counts in the irradiated zone (normalized to vehicle),RBE4 cells [4],not statistically significant
